This is an account of results in PubChem BioAssay (NCI).

Each structure is given as a SMILES string.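 Values below derive from 48-hour exposures of cells grown in 96-well plates, with endpoints linearly interpolated between the two concentrations bracketing the appropriate inhibition level. GI50 marks 50% less growth. The concentration for full growth arrest is given as TGI.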 Bounds are passed on as bounds.

Assay in all cases: inhibition of tumour cell growth, NCI panel, 48 h
For assay [1], the system named is OVCAR-3 ovarian.
Assay [2] deals with SF-268 CNS.
For assay [3], the system named is MCF7 breast.
Assay [4] concerns ACHN renal.
The subject of assay [5] is A549 NSCLC.
In assay [6] the test system is A498 renal.
Assay [7] deals with MDA-MB-435.
The test system of assay [8] is BT-549 breast.
Assay [9] relates to MOLT-4 leukemia.
For assay [10], the system named is COLO 205 colon.

As for `CC(ONC(=O)c1cc(C(F)(F)F)cc(C(F)(F)F)c1)C(=O)Nc1ccc(Cl)cc1` (stereo not given), the GI50 in assay [1] was 4.25 µM; in assay [2] it was 5.2 µM; in assay [3], 3.38 µM; in assay [4], 4.55 µM; in assay [5], 4.68 µM; in assay [6], 3.35 µM. In addition, the GI50 is 4.39 µM in assay [7], 3.71 µM in assay [8], 2.65 µM in [9] and 5.32 µM in assay [10]. Besides, the TGI in assay [1] is greater than 76.6 µM; in assay [2] it was greater than 67.9 µM; in assay [3], 16.5 µM; in [4], 50.6 µM; in assay [5], greater than 41.3 µM; in assay [6] it was 14.5 µM. Besides, the TGI in assay [7] turned out to be 29.7 µM; in [8] it was 16.7 µM; in assay [9], 22.3 µM; in assay [10] it was 25.8 µM.

Consider `O=C1/C(=C/c2ccccc2Cl)N=C(c2ccccc2)N1Cc1ccco1`, for which the GI50 is 26.9 µM in [1]; 50.2 µM in [2]; 18.3 µM in assay [3]; greater than 100 µM in [4]; 27.7 µM in assay [5]; 24.3 µM in [6]. Also, the GI50 is 20.1 µM in assay [7], 39.8 µM in assay [8], 13.3 µM in assay [9] and 51.4 µM in [10]. The TGI in assay [1] was greater than 100 µM; in [2], greater than 100 µM; in assay [3], greater than 100 µM; in assay [4] it was greater than 100 µM; in assay [5], greater than 100 µM; in [6] it was 76.6 µM. In addition, the TGI in assay [7] is 49.9 µM; in [8] it was greater than 100 µM; in [9], greater than 100 µM; in assay [10], greater than 100 µM.

For the compound `O=C1c2ccccc2C(=O)N1c1ccc(S(=O)(=O)Nc2ncccn2)cc1`, the GI50 in [1], in [2], in assay [3], in assay [4], in [5] and in [6] was greater than 100 µM each time. For the same compound, the GI50 in [7], in [8], in assay [9] and in [10] was greater than 100 µM each time. The TGI in assay [1], in assay [2], in assay [3], in assay [4], in [5] and in [6] was greater than 100 µM each time. In addition, the TGI in assay [7], in assay [8], in assay [9] and in assay [10] was greater than 100 µM throughout.

Regarding `COc1ccc(C(O)CNC(=O)c2ccccc2)cc1` (stereo not given), the TGI in [1], in assay [2], in [3], in [4], in [5] and in assay [6] was greater than 100 µM throughout. For the same compound, the TGI in [7], in [8], in assay [9] and in [10] was greater than 100 µM each time.

Turning to `COC(=O)c1ccccc1NC(=O)/C(=N\NC(C)(C)C)C(C#N)c1nc(-c2ccc([N+](=O)[O-])cc2)cs1` (stereo not given), the TGI in assay [1], in assay [2], in assay [3], in assay [4], in assay [5] and in assay [6] was greater than 100 µM in each case. Moreover, the TGI in [7], in assay [8], in [9] and in assay [10] was greater than 100 µM throughout.

Take `CC(=O)O[C@@H]1CO[C@H]2O[C@H]3[C@@H](C(C=O)=C[C@H](O)[C@@H]4C5=C(C(C)C)CC[C@]5(C)CC[C@@]34C)[C@@]2(O)C1=O`: the TGI in assay [1] stood at 0.278 µM; in assay [2], 0.667 µM; in assay [3] it was 1.69 µM; in assay [4], 0.281 µM; in assay [5], 5.57 µM; in assay [6] it was 1.96 µM. Besides, the TGI was determined as 0.393 µM in assay [7], 0.353 µM in [8], 0.28 µM in [9] and 0.249 µM in [10].
